Measurements as given in article PMC7175314, “Development of Novel ^111-In-Labelled DOTA Urotensin II Analogues for Targeting the UT Receptor Overexpressed in Solid Tumours” (Biomolecules, 2020).
Where a SMILES comes first, the peptide text is derived from it. Bridges are numbered along the chain shown (N, C = ends). [ ]: non-standard residue; d: D form. The star is where a group is joined. DOTA = O=C(O)CN1CCN(CC(=O)O)CCN(CC(=O)*)CCN(CC(=O)O)CC1; Pen = CC(C)(S)[C@H](N)C(=O)O; Orn = NCCC[C@H](N)C(=O)O; Ahx = NCCCCCC(=O)O

Key:
in vitro = in vitro ADME, human
Procedure: The mixture was incubated in a 5% CO2, 37 °C and 100 μL aliquots (in triplicates) were removed at different time points and treated with 200 μL of EtOH to precipitate serum proteins. Samples were then centrifuged for 15 min at 2500g and after centrifugation, 50 μL of supernatant was counted, and also analysed by thin layer chromatography to determine the amount of intact peptide and its metabolites in the serum.

in vivo = assay: in vivo; design: species or system Swiss (nu/nu) mice; details: Swiss (nu/nu), mouse, iv, 2 MBq
Procedure: For tumour targeting studies, inocula (100 µL) containing a suspension of 5 × 10^6 freshly harvested A549 or DLD-1 cells in phosphate buffered-saline were injected subcutaneously into the right shoulder blade in Swiss (nu/nu) mice (n = 5 in each group). When the tumour size reached 250 mm^3 (approximatively 2-weeks), 2 MBq of ^111In-DOTA-hUII or ^111In-DOTA-urantide were injected into the tail vein. After 24 h, animals were sacrificed, and tumours were collected, directly frozen in isopentane (−50 °C) and stored at −80 °C.

[1] = design: species or system C57BL/6 mice; details: mouse, in vivo, iv
Procedure: For biodistribution studies, C57BL6/6 wild-type mice were injected with ^111In-DOTA-hUII (3 MBq, 100 µL) into the tail vein. Mice were sacrificed at 4, 24, 48 and 72 h post-injection and blood and organs were collected. All samples were analysed with a gamma counter and the data presented were calculated as the percent injected dose per gram of tissue (% ID/g). Data were expressed as mean ± SEM obtained from four animals per kinetic time.

human UT [2] = target: T1, human UT (Homo sapiens, UniProt Q9UKP6); assay: Calcium assay (fluo-4, FlexStation) in HEK-293 cells expressing UT; type: cell-based; details: [Ca^2+]c increase, HEK-293 cells expressing human UT, 10^−11 to 10^−6 M
T1 construct: expressed in transfected cells; host or cells: HEK-293
T1 sequence (Q9UKP6 1-389): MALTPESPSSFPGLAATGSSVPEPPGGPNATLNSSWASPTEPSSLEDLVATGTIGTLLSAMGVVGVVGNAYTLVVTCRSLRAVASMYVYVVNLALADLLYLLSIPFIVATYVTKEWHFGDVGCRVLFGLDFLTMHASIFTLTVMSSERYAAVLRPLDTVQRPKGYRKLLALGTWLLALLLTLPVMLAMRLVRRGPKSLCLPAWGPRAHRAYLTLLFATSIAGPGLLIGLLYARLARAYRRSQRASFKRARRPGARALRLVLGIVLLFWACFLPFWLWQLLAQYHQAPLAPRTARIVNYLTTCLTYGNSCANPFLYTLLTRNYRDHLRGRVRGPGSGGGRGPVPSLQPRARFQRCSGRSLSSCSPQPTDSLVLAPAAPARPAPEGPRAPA
Procedure: HEK-293 cells expressing UT-MYC were plated at 50,000 cells/well into clear-bottom, black, 96-well plates (Corning, Bagneaux-sur-Loing, France), previously coated with poly-L-ornithine (100 µg/mL, 1 h, 37 °C) and incubated overnight in culture medium. After 24 h, cells were rinsed twice with HBSS buffer (20 mM HEPES, 0.5 mM MgCl2, 2.6 mM CaCl2, 7.7 mM Na2CO3, 1.4 mM MgSO4, 5.3 mM KCl, 138 mM NaCl, 0.1% BSA, 5.5 mM glucose, 2.5 mM probenecid, pH 7.4) (Sigma Aldrich, Saint-Quentin-Fallavier, France) and loaded (40 min at 37 °C) with the calcium-sensitive dye fluo-4 AM (ThermoFisher Scientific, Montigny-Le-Bretonneux, France) containing pluronic acid (20% in DMSO). […] Data were expressed as the ratio of maximum response to the average control value.

human UT-GFP = target: T2, human UT-GFP (Homo sapiens, UniProt Q9UKP6); assay: UT internalisation by confocal microscopy in HEK-293 cells expressing UT-GFP; type: cell-based; details: 10^−7 M, 1 h
T2 construct: expressed in transfected cells; host or cells: HEK-293 (transient)
T2 sequence (Q9UKP6 1-389): T1 sequence (Q9UKP6 1-389)
Procedure: For cytochemistry experiments, HEK-293 cells expressing UT-GFP were seeded at 70,000 cells/well into transparent, 24-well plates (Corning, Bagneaux-sur-Loing, France), previously coated with human fibronectin (25 µg/mL, overnight, 4 °C) and incubated overnight in culture medium. […] Cells were rinsed with PBS, fixed with paraformaldehyde (4%, 10 min) and counterstained with DAPI (1 µg/mL, 5 min) to label nuclei. Image analysis was performed by confocal microscopy (Leica TCS SP8 confocal laser scanning microscope).

human UT [3] = target: T1, human UT; assay: Competition binding of ^125I-hUII on HEK-293 cells expressing UT; details: displacement of ^125I-hUII (0.2 nM), HEK-293 cells expressing human UT, 2 h 22 °C
Procedure: Cultured HEK-293 cells expressing UT-MYC were rinsed three times with PBS, dried under a cold air stream and stored at −80 °C until binding experiments. […] At the end of the incubation, cells were washed three times with assay buffer, solubilised with 1% SDS and the radioactivity was counted in a gamma counter (LKB Wallac, Evry, France).

human UT [4] = target: T1, human UT; assay: UT internalisation assay (ELISA) in HEK-293 cells expressing UT-MYC; type: cell-based; details: 1 h, graded concentrations up to 10^−6 M
Procedure: For ELISA experiments, HEK-293 cells expressing UT-MYC were plated at 10,000 cells/well into white, 96-well plates (Corning, Bagneaux-sur-Loing, France), previously coated with poly-L-ornithine (100 µg/mL, 1 h, 37 °C) and incubated overnight in culture medium. […] Cells were permeabilised or not with Triton X-100 (0.05%, 5 min). Non-specific binding sites were blocked with FBS (10%) and normal donkey serum (NDS, 2%, 1 h). Cells were then incubated with anti-MYC antibody (1 h, 20 °C) followed by incubation with GAM-HRP (1 h, 20 °C). After washes, chemoluminescence was detected with an ELISA kit (ThermoFisher Scientific, Montigny-Le-Bretonneux, France) and the InfinitePro200 plate reader (TECAN FRANCE, Lyon). Data are expressed as the ratio between intensity measured on the permeabilised cells and that measured on the non-permeabilised cells, compared to the average control value.

DLD-1 cells [5] = assay: Cell proliferation, DLD-1; type: cell-based, human; details: 10^−9 or 10^−7 M, only observable after 48 h
A549 cells [6] = assay: Cell migration assay (modified Boyden chamber), A549; type: cell-based, human; details: 10^−9 or 10^−7 M, 24 h
Procedure: (§1) DLD-1 and A549 cells were seeded (50,000 cells) on transwell filters with 8-µm pores previously coated with human fibronectin (25 µg/mL, 4 °C, overnight) in serum-free medium on the upper chamber. […] After 24 h incubation period at 37 °C, filters were rinsed with PBS and non-migrating cells were removed from the upper surface by using a cotton-swab. Migrating cells were fixed in successive baths of methanol (50, 70, 90 and 100%), stained with eosin and haematoxylin and filters were mounted on glass slides with Mowiol. Random phase contrast images of filters were then recorded, using a digital camera connected to a Nikon microscope (Eclipse TS-100) and image analysis was performed by using Image J’s Cell Counter. The data were represented as the ratio of treatment chemoattraction normalised to control.

A549 cells [7] = assay: Cell proliferation, A549; type: cell-based, human; details: 10^−9 or 10^−7 M, only observable after 48 h
DLD-1 cells [8] = assay: Cell migration assay (modified Boyden chamber), DLD-1; type: cell-based, human; details: 10^−9 or 10^−7 M, 24 h
Procedure: as §1

[9] = total radioactivity, Ratio tumour/muscle

Row | Structure (SMILES) | tissue to tissue ratio at 24 h (in vivo; total radioactivity) | tissue to tissue ratio at 24 h (in vivo; [9]) | tissue to tissue ratio at 24 h (in vivo; tumour/muscle ratio) | EC50 (human UT [2]) | accumulation of UT in cytosolic puncta (confocal microscopy) (human UT-GFP) | IC50 (human UT [3]) | internalisation rate of UT (ELISA) (human UT [4]) | tissue to tissue ratio at 24 h (in vivo) | tissue to tissue ratio at 24 h (in vivo; Ratio tumour/muscle) | other results
1 | CC(C)[C@H](NC(=O)[C@@H]1CSSC[C@H](NC(=O)[C@H](CC(=O)O)NC(=O)[C@@H]2CCCN2C(=O)[C@@H](NC(=O)[C@H](CCC(=O)O)NC(=O)CCCCCNC(=O)CN2CCN(CC(=O)O)CCN(CC(=O)O)CCN(CC(=O)O)CC2)[C@@H](C)O)C(=O)N[C@@H](Cc2ccccc2)C(=O)N[C@@H](Cc2c[nH]c3ccccc23)C(=O)N[C@@H](CCCCN)C(=O)N[C@@H](Cc2ccc(O)cc2)C(=O)N1)C(=O)O [^111In-DOTA-hUII, metal not drawn] | 2.85 ± 0.66 | 3.33 ± 0.96 | ~2.5 | – | – | – | – | – | – | Percent of Radiolabelled Peptide (in vitro): 98 ± 2 (%); metabolised at 3 h, 0.6 µM (in vitro; human, serum): 30%; remaining at 1 h, 0.6 µM (in vitro; human, serum): 82 ± 2%; remaining at 3 h, 0.6 µM (in vitro; human, serum): 71 ± 4%; radioactive DOTA-peptide cleared from animals [1]: more than 90%
2 | CC(C)[C@H](NC(=O)[C@@H]1CSSC(C)(C)[C@H](NC(=O)[C@H](CC(=O)O)NC(=O)CCCCCNC(=O)CN2CCN(CC(=O)O)CCN(CC(=O)O)CCN(CC(=O)O)CC2)C(=O)N[C@@H](Cc2ccccc2)C(=O)N[C@H](Cc2c[nH]c3ccccc23)C(=O)N[C@@H](CCCN)C(=O)N[C@@H](Cc2ccc(O)cc2)C(=O)N1)C(=O)O [^111In-DOTA-urantide, metal not drawn] ({DOTA-Ahx}-D[Pen]F[dW][Orn]YCV-OH; disulfide 2-7) | 2.08 ± 0.45 | 2.47 ± 0.15 | ~2.5 | – | – | – | – | – | – | –
3 | CC(C)[C@H](NC(=O)[C@@H]1CSSC(C)(C)[C@H](NC(=O)[C@@H](N)CC(=O)O)C(=O)N[C@@H](Cc2ccccc2)C(=O)N[C@H](Cc2c[nH]c3ccccc23)C(=O)N[C@@H](CCCN)C(=O)N[C@@H](Cc2ccc(O)cc2)C(=O)N1)C(=O)O [urantide, c-[Pen^5, D-Trp^7, Orn^8]hUII4-11, reference compound] (H-D[Pen]F[dW][Orn]YCV-OH; disulfide 2-7; N-terminus and C-terminus assumed) | – | – | – | 50.5 ± 16.1 nM | ineffective | 29 ± 11.2 nM | failed to provoke UT internalisation | – | – | –
4 | CC(C)[C@H](NC(=O)[C@@H]1CSSC(C)(C)[C@H](NC(=O)[C@H](CC(=O)O)NC(=O)CCCCCNC(=O)CN2CCN(CC(=O)O)CCN(CC(=O)O)CCN(CC(=O)O)CC2)C(=O)N[C@@H](Cc2ccccc2)C(=O)N[C@H](Cc2c[nH]c3ccccc23)C(=O)N[C@@H](CCCN)C(=O)N[C@@H](Cc2ccc(O)cc2)C(=O)N1)C(=O)O [DOTA-urantide, DOTA-Ahx-D[Pen-F-W-Orn-YC]V] ({DOTA-Ahx}-D[Pen]F[dW][Orn]YCV-OH; disulfide 2-7) | – | – | – | – | ineffective | – | failed to provoke UT internalisation | 2.08 ± 0.45 | 2.47 ± 0.15 | –
5 | CC(C)[C@H](NC(=O)[C@@H]1CSSC[C@H](NC(=O)[C@H](CC(=O)O)NC(=O)[C@@H]2CCCN2C(=O)[C@@H](NC(=O)[C@H](CCC(=O)O)NC(=O)CCCCCNC(=O)CN2CCN(CC(=O)O)CCN(CC(=O)O)CCN(CC(=O)O)CC2)[C@@H](C)O)C(=O)N[C@@H](Cc2ccccc2)C(=O)N[C@@H](Cc2c[nH]c3ccccc23)C(=O)N[C@@H](CCCCN)C(=O)N[C@@H](Cc2ccc(O)cc2)C(=O)N1)C(=O)O [DOTA-hUII, DOTA-Ahx-ETPD[CFWKYC]V] | – | – | – | 19.4 ± 2.47 nM | promoted a strong accumulation of UT in cytosolic puncta into cells | 9.13 ± 2.06 nM | exerted similar effects, with very close potency and efficacy | 2.85 ± 0.66 | 3.33 ± 0.96 | –
6 | CC(C)[C@H](NC(=O)[C@@H]1CSSC[C@H](NC(=O)[C@H](CC(=O)O)NC(=O)[C@@H]2CCCN2C(=O)[C@@H](NC(=O)[C@@H](N)CCC(=O)O)[C@@H](C)O)C(=O)N[C@@H](Cc2ccccc2)C(=O)N[C@@H](Cc2c[nH]c3ccccc23)C(=O)N[C@@H](CCCCN)C(=O)N[C@@H](Cc2ccc(O)cc2)C(=O)N1)C(=O)O [hUII, H2N-ETPDc-[CFWKYC]V-CO2H] | – | – | – | – | promoted a strong accumulation of UT in cytosolic puncta into cells | – | provoked a dose-dependent increase in internalisation rate of UT | – | – | proliferation rate (DLD-1 cells [5]): increase the proliferation rate; chemotactic migration (A549 cells [6]): stimulated chemotactic migration; proliferation rate (A549 cells [7]): increase the proliferation rate; chemotactic migration (DLD-1 cells [8]): stimulated chemotactic migration
